Laboratory results reported in PMC6757289, “Design and Characterization of SGK3-PROTAC1, an Isoform Specific SGK3 Kinase PROTAC Degrader” (ACS Chemical Biology, 2019).

Key:
SDC2 = experiment: TMT global proteomic analysis of HEK293 cells; type: cell-based, Homo sapiens; conditions: HEK293, 0.3 μM, 8 h
Procedure: (§1) To establish the specificity of SGK3-PROTAC1 employing an unbiased approach, we performed quantitative Tandem–Mass–Tag (TMT)-labeled global proteomic analysis of HEK293 cells treated in the presence or absence of 0.3 μM SGK3-PROTAC1 compared to either 0.3 μM cisSGK3-PROTAC1 or DMSO for 8 h. Experiments were undertaken in triplicate, and analysis in Proteome Discoverer v2.2 using the Mascot search engine allowed relative quantification of 8766 proteins.
(§2) Figure 4 TMT proteomic analysis of HEK293 cells treated with SGK3-PROTAC1. (A) Cells were treated with DMSO (control), SGK3-PROTAC1 (0.3 μM), or cisSGK3-PROTAC1 (0.3 μM) for 8 h and lysed. Lysates were subjected to immunoblot analysis with the indicated antibodies. (B) Lysates were examined by quantitative proteomics. […]
(§3) Cell culture and proteomic sample preparation
(§4) Cells pellets were lysed with 2 ml of lysis buffer (8 M Urea, 50 mM Ammonium bicarbonate containing protease inhibitor and phosphatase inhibitor). The sample were left on ice for 15 min and were then sonicated for 5 min in ice-cold water bath under high intensity with 30 sec on and off. After sonication, benzonase® endonuclease (Merck Millipore) with the volume ratio of 1: 100 were added into the lysate to degrade DNA and RNA. The lysate were then centrifuged at 12,000 rpm for 15 min at 4 °C, and supernatants were transferred into new eppendorf tubes. The protein concentration were measured with BCA assay (Pierce™ BCA Protein Assay Kit, Thermo). The lysate from each sample was reduced with 5 mM DTT at 45 °C for 30 min. Lysates were briefly centrifuged and were cool down to room temperature before alkylation in the dark with 10 mM iodoacetamide at room temperature. The alkylation was then quenched by the addition of 5 mM DTT. Samples were first digested by Lys-C with the weight ratio of 1:200 (w/w) for 4 h at 30 °c. Then, sample were diluted with 50 mM ammonium bicarbonate to 1.5 M Urea concentration. Samples were then digested with trypsin (Pierce trypsin, Thermo) at an enzyme to protein ratio of 1:50 (w/w) at room temperature with gentle shaking for overnight.
(§5) The digest was stopped by the addition of 1% TFA (v/v), centrifuged at 10,000 g for 10 min at room temperature.
(§6) The supernatant were desalted on 200 mg SepPak tC18 cartridge (Waters). Desalted peptides were dried by vacuum centrifugation using Speedvac (Thermo).
(§7) TMT labelling and Basic C18 reverse phase (bRP) chromatography fractionation Each sample (200 μg of peptides each) was re-suspended in 100 μL of 100 mM TEAB buffer. The TMT labelling reagents were equilibrated to room temperature and 41 μL anhydrous acetonitrile was added to each reagent channel and softly vortexed for 10 min. Peptides were transferred to the corresponding TMT channels and incubated for 1 h at room temperature. The reaction was quenched with 8 μL of 5% hydroxylamine. To ensure complete labelling, 1 µg of labelled samples from each channel were analyzed by LC-MS/MS prior to mix. After evaluation, the complete TMT labelled 9 samples were then combined, acidified and dried. Sep-Pak desalting was then performed and the elution was dried to completeness.
(§8) Ultimate 3000 high-pressure liquid chromatography (HPLC) system (Dionex) were used for basic C18 reverse phase chromatography fractionation operating at 569 µL/min with two buffers: buffer A (10 mM ammonium formate, pH 10) and buffer B (80% ACN, 10 mM ammonium formate, pH 10). The desalted mixture of TMT-labelled peptides were resuspended in 200 µL of buffer A (10 mM ammonium formate, pH10) and separated on a C18 reverse phase column (4.6 × 250 mm, 3.5 μm, Waters) with a gradient from 3% B to 12.5 % B in 10 min, […]
(§9) min, 100% for 5 min, ramping to 3% B in 2.5 min and then 3% for 10 min. A total of 90 fractions (1 min per fraction) were collected before further concatenation into 30 final fractions. Each fraction was then dried and desalted over a C18 StageTip prior to analysis by mass spectrometry. […]

MOXD1 = experiment: TMT global proteomic analysis of HEK293 cells; type: cell-based, Homo sapiens; conditions: HEK293, 0.3 μM, 8 h
Procedure: as §1, §2, §3, §4, §5, §6, §7, §8, §9

S100A7 = experiment: TMT global proteomic analysis of HEK293 cells; type: cell-based, Homo sapiens; conditions: HEK293, 0.3 μM, 8 h
Procedure: as §1, §2, §3, §4, §5, §6, §7, §8, §9

SGK2 = molecular target: T1, SGK2 (Homo sapiens, UniProt Q9HBY8); experiment: SGK2 protein level in HEK293 cells, immunoblot; type: cell-based; conditions: HEK293, 48 h
T1 construct: reduced endogenous SGK isoform or S6K1 expression when administered to HEK293 cells for 48 h; endogenous in cells; host or cells: HEK293
Procedure: A medium length linker composed of three PEG units was used in the first instance (Figure 1B and C). […] After 48 h of PROTAC treatment, cell lysates were analyzed by immunoblot analysis, and protein expression under each condition was quantified relative to the DMSO-only control. […] DAT1 reduced SGK3 expression by 60% at 1 μM and 75% at 10 μM after 48 h (Figure 1D). […] As expected, inhibition of CUL2 neddylation by means of the inhibitor MLN4924 (3 μM) or proteasome inhibition (MG132, 50 μM) blocked DAT1-induced degradation of SGK3 (Figure S1C).
All cell treatments were carried out as described in figure legends, to a final DMSO concentration of 0.1% (v/v). Lysates were quantified. Immunoblotting was performed using standard procedures, described in brief below. Lysate concentration was quantified by Bradford Assay, and 10 μg of lysate was loaded in the LDS sample buffer for SDS-PAGE electrophoresis on Novex 4–12% Bis–Tris gels. Proteins were electrophoretically transferred onto nitrocellulose membranes (Amersham Protran 0.45 μm NC; GE Healthcare) at 80 V for 80 min on ice in transfer buffer. […] The signal was produced with near-infrared secondary antibodies and detected using a Licor Biosciences Odyssey System, and the signal was quantified in Image Studio Lite.

T1 sequence (Q9HBY8 whole entry, canonical isoform): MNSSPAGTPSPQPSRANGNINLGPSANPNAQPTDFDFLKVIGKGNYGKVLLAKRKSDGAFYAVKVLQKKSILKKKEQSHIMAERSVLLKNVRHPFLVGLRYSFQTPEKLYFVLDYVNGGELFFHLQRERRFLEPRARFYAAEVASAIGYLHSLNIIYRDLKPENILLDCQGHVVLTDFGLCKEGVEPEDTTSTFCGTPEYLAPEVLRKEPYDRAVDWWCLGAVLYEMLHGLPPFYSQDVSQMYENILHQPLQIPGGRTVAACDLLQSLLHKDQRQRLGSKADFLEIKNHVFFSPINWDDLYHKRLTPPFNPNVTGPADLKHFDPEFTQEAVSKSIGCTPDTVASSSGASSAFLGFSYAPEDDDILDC

Row | SGK2 level (SGK2; up to 10 μM) | Structure (SMILES) | Abundances (Grouped) (SDC2) | Ratio: (SGK3-PROTAC1) / (cSGK3-PROTAC1) (SDC2) | Ratio: (compound) / (DMSO) (SDC2) | Abundances (Grouped) (MOXD1) | Ratio: (SGK3-PROTAC1) / (cSGK3-PROTAC1) (MOXD1) | Ratio: (compound) / (DMSO) (MOXD1) | Abundances (Grouped) (S100A7) | Ratio: (SGK3-PROTAC1) / (cSGK3-PROTAC1) (S100A7) | Ratio: (compound) / (DMSO) (S100A7) | SGK2 level (SGK2; 0.1 μM)
1 | – | Cc1ccc(F)c(S(=O)(=O)Nc2ccc(-c3nc(OC[C@H]4CN(CCCCCCOCCOCCOCC(=O)N[C@H](C(=O)N5C[C@H](O)C[C@H]5C(=O)NCc5ccc(-c6scnc6C)cc5)C(C)(C)C)CCO4)c4cn[nH]c4n3)cc2)c1 [SGK3-PROTAC1] | 106.6 | 2.505 | 0.665 | 90.2 | 1.082 | 0.713 | 90.9 | 1.014 | 0.645 | without effecting
2 | not significantly impacted | Cc1ccc(F)c(S(=O)(=O)Nc2ccc(-c3nc(OC[C@H]4CN(CCOCCOCCOCC(=O)N[C@H](C(=O)N5C[C@H](O)C[C@H]5C(=O)NCc5ccc(-c6scnc6C)cc5)C(C)(C)C)CCO4)c4cn[nH]c4n3)cc2)c1 [DAT1] | – | – | – | – | – | – | – | – | – | –
3 | – | Cc1ccc(F)c(S(=O)(=O)Nc2ccc(-c3nc(OC[C@H]4CN(CCCCCCOCCOCCOCC(=O)N[C@H](C(=O)N5C[C@@H](O)C[C@H]5C(=O)NCc5ccc(-c6scnc6C)cc5)C(C)(C)C)CCO4)c4cn[nH]c4n3)cc2)c1 [cisSGK3-PROTAC1] | 37.8 | – | 0.266 | 83.4 | – | 0.656 | 90.1 | – | 1.695 | –
